What all share (assay): NCI anticancer screen, dose series, 48 h
The subject of assay [1] is DMS 114 small cell lung.
Assay [2] has as its system DMS 273 small cell lung.
Assay [3] relates to HOP-18 NSCLC.
For assay [4], the system named is KM20L2 colon.
The test system of assay [5] is LXFL 529 NSCLC.
Assay [6] concerns M19-MEL melanoma.
Assay [7] deals with NCI-H522 lung.
Assay [8] deals with OVCAR-8 ovarian.
The test system of assay [9] is SK-OV-3 ovarian.
The test system of assay [10] is SN12C renal.
The subject of assay [11] is UACC-257 melanoma.
Assay [12] has as its system UACC-62 melanoma.
Assay [13] relates to XF 498 CNS.
The test system of assay [14] is DLD-1 colon.
For assay [15], the system named is SNB-78 CNS.

SMILES strings stand for the structures.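 Following 48 hours of exposure in 96-well plates, responses at five concentrations were used to interpolate endpoints linearly. TGI is the concentration that stops growth completely.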

Regarding `O=C(Cc1ccccc1F)NC1=C(Cl)C(=O)c2ccccc2C1=O`, the TGI in [1] worked out at 0.543 µM; in assay [2], 11.5 µM; in assay [3], 3.32 µM; in assay [4] it was 29.8 µM; in assay [5], 5.56 µM; in assay [6], 12.4 µM. In addition, the TGI in assay [7] was found to be 0.565 µM; in assay [8], 9.36 µM; in assay [9], 13.7 µM; in assay [10] it was 16.8 µM; in [11], 4.32 µM; in [12], 1.92 µM. This molecule also displayed a TGI in assay [13] of 1.68 µM.

For `CC(Oc1ccccc1Cl)C(=O)NN1C(=O)CC(=O)N(c2ccccc2)C1=S` (configuration not stated), the TGI in assay [7], in assay [8], in assay [9], in assay [10], in [11] and in assay [12] was greater than 100 µM in each case.

Consider `CCOC(=O)CC(c1ccccc1)C(C)(C(=O)OCC)C(=O)OCC` (configuration not stated), for which the TGI in assay [7], in assay [8], in assay [9], in [10], in [11] and in assay [12] was greater than 100 µM in each case.

For the molecule `CSC1(C)C(=O)Nc2c(OCc3ccccc3)cc([N+](=O)[O-])cc21` (configuration not stated), the TGI in assay [7] was greater than 100 µM; in assay [8], 55.1 µM; in assay [9] it was greater than 100 µM; in assay [10], 34.6 µM; in assay [11], greater than 100 µM; in assay [12], greater than 100 µM.

For `CC(=O)OC(CC1(C)C(C)CCC23COC(=O)C2=CCCC31)c1ccoc1` (configuration not stated), the TGI in [14] was greater than 100 µM; in assay [1] it was greater than 100 µM; in assay [4], 58.7 µM; in [5] it was 38.9 µM; in assay [6], greater than 100 µM; in assay [7], 35.6 µM. Moreover, the TGI in assay [8] was 54.2 µM; in assay [9] it was greater than 100 µM; in assay [10] it was 71.8 µM; in assay [15], 70.4 µM; in assay [11] it was 72.5 µM; in [12], 59.9 µM. Also, in [13], the TGI was 44.6 µM.

Regarding `C1CSCCSCCCSC2CCCCC2SC1` (configuration not stated), the TGI in [7], in assay [8], in assay [9], in assay [10], in assay [11] and in [12] was greater than 100 µM throughout.

On to `COC(=O)c1c(C(=O)OC)c2ccccn2c1-c1cc(OC)c(Br)c(=O)o1`, for which the TGI in [7], in assay [8], in assay [9], in [10], in assay [11] and in [12] was greater than 100 µM in each case.

As for `COc1ccc(OC)c(NCC(=O)Nn2cnc3ccc(S(=O)(=O)Nc4cc(OC)ccc4OC)cc3c2=O)c1`, the TGI in [7], in [8], in assay [9], in assay [10], in assay [11] and in assay [12] was greater than 100 µM in each case.

Regarding `COCCN(CCNC(=O)c1cccc2c(N)c3cccc(C)c3nc12)CCOC`, the TGI in [7] turned out to be 0.894 µM; in assay [8], 19 µM; in assay [9], 42.1 µM; in assay [10], 6.54 µM; in assay [11] it was 19.9 µM; in assay [12] it was 10.6 µM.

On to `S=C(NCCc1ccccn1)N/N=C/c1ccccn1`, for which the TGI is 1.57 µM in [7]; greater than 100 µM in [8]; greater than 100 µM in [9]; 13.3 µM in assay [10]; 1.77 µM in assay [11]; 4.59 µM in assay [12].

Turning to `CCCCn1c(CSc2ccc(Cl)cc2)c(C(=O)OCC)c2cc(OC)c(Br)cc21`, the TGI in assay [7], in assay [8], in assay [9], in assay [10], in assay [11] and in assay [12] was greater than 100 µM each time.

In the case of `O=C(Nc1ccc(Cl)cc1C(F)(F)F)C(=O)C1CCCS1(=O)=O` (configuration not stated), the TGI in assay [14], in assay [1], in [3], in assay [4], in [5] and in assay [6] was greater than 100 µM each time. For the same molecule, the TGI in assay [8], in [10], in [15], in assay [11], in assay [12] and in assay [13] was greater than 100 µM each time.

Consider `CC1CN=C(NS(=O)(=O)c2cc(C(=O)Nc3ccc(Cl)cc3)c(Cl)cc2S)NN1` (configuration not stated), for which the TGI in assay [7] was 64.1 µM; in assay [8], 59.3 µM; in assay [9], greater than 100 µM; in [10], greater than 100 µM; in assay [11], greater than 100 µM; in [12], 84.1 µM.

`COc1cc2c(c(OC)c1OC)C(=O)[C@@H]1[C@H]2N1C(=O)NCCCl`: the TGI in assay [7], in assay [8], in assay [9], in assay [10], in [11] and in [12] was greater than 100 µM in each case.

Take `Cc1cc(Cl)nc2nc(Cl)c(N)cc12`: the TGI in assay [7] amounted to 12 µM; in [8] it was 8.55 µM; in [9], 37.8 µM; in assay [10], 3.21 µM; in assay [11], 3.55 µM; in assay [12], 5.95 µM.

With `c1cc(-c2ccc(-c3ccc(-c4ccc(-c5ccncc5)o4)cc3)o2)ccn1`, the TGI in [7] stood at 31.7 µM; in [8], 33.5 µM; in assay [9], 45.2 µM; in assay [10], 45.5 µM; in [11], 29.6 µM; in assay [12], 32.9 µM.

Regarding `COc1cc(-c2nc3ccc(N4CCN(C)CC4)cc3[nH]2)c(OC)c2[nH]c(COC(C)=O)nc12`, the TGI in assay [7], in assay [8], in assay [9], in [10], in assay [11] and in assay [12] was greater than 100 µM each time.
